Data reported in ChEMBL document CHEMBL3400066, “2-(Isopropylamino)thieno[3,2-d]pyrimidin-4(3H)-one derivatives as selective phosphodiesterase 7 inhibitors with potent in vivo efficacy” (Bioorg Med Chem Lett, 2015).
Converted amounts (≈) assume the structure as drawn.

Legend:
[1] = target: High affinity 3',5'-cyclic-AMP phosphodiesterase 7A (Homo sapiens, UniProt Q13946); assay: Inhibition of human PDE7A expressed in insect cells assessed as inhibition of [3H]cAMP to [3H]AMP hydrolysis after 30 mins by scintillation counting
Sequence of High affinity 3',5'-cyclic-AMP phosphodiesterase 7A (Q13946 whole entry): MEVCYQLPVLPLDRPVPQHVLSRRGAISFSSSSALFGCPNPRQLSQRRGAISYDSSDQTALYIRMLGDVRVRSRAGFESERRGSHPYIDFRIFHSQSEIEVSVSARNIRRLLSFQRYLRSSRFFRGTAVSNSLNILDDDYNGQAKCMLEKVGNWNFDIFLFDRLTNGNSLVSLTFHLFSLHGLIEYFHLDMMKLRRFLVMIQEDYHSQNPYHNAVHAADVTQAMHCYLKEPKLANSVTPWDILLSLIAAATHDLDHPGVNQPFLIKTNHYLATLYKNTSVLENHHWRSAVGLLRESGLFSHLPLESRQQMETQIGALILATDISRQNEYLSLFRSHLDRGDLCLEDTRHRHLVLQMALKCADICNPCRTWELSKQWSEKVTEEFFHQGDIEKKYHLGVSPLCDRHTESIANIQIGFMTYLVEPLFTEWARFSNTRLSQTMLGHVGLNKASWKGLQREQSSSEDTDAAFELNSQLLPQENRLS

[2] = target: 3',5'-cyclic-AMP phosphodiesterase 4B (Homo sapiens, UniProt Q07343); assay: Inhibition of human PDE4B expressed in insect cells assessed as inhibition of [3H]cAMP to [3H]AMP hydrolysis after 30 mins by scintillation counting
Sequence of 3',5'-cyclic-AMP phosphodiesterase 4B (Q07343 whole entry): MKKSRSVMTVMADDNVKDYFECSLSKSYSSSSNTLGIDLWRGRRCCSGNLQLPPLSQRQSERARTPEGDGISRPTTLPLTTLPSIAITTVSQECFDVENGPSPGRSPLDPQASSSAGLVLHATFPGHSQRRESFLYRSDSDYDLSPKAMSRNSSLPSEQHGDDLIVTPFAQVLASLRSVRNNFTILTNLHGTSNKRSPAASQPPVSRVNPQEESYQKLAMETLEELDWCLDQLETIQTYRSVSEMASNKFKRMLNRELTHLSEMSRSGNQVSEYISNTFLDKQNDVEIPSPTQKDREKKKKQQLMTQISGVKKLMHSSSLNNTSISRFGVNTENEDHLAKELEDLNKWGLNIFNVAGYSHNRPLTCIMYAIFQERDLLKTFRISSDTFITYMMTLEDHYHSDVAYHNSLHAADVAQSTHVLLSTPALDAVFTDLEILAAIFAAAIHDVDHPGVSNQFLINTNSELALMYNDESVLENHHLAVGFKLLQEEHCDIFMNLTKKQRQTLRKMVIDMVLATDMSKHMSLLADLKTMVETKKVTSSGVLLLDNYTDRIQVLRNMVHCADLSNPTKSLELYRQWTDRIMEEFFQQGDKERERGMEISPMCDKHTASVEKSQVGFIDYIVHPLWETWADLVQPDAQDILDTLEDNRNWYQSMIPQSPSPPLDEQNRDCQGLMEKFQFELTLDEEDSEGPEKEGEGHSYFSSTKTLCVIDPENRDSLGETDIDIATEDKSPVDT

[3] = Solubility of the compound in phosphate buffer at pH 6.8; assay type: physicochemical
[4] = target: cGMP-inhibited 3',5'-cyclic phosphodiesterase 3A (Homo sapiens, UniProt Q14432); assay: Inhibition of PDE3A (unknown origin)
Sequence of cGMP-inhibited 3',5'-cyclic phosphodiesterase 3A (Q14432 whole entry): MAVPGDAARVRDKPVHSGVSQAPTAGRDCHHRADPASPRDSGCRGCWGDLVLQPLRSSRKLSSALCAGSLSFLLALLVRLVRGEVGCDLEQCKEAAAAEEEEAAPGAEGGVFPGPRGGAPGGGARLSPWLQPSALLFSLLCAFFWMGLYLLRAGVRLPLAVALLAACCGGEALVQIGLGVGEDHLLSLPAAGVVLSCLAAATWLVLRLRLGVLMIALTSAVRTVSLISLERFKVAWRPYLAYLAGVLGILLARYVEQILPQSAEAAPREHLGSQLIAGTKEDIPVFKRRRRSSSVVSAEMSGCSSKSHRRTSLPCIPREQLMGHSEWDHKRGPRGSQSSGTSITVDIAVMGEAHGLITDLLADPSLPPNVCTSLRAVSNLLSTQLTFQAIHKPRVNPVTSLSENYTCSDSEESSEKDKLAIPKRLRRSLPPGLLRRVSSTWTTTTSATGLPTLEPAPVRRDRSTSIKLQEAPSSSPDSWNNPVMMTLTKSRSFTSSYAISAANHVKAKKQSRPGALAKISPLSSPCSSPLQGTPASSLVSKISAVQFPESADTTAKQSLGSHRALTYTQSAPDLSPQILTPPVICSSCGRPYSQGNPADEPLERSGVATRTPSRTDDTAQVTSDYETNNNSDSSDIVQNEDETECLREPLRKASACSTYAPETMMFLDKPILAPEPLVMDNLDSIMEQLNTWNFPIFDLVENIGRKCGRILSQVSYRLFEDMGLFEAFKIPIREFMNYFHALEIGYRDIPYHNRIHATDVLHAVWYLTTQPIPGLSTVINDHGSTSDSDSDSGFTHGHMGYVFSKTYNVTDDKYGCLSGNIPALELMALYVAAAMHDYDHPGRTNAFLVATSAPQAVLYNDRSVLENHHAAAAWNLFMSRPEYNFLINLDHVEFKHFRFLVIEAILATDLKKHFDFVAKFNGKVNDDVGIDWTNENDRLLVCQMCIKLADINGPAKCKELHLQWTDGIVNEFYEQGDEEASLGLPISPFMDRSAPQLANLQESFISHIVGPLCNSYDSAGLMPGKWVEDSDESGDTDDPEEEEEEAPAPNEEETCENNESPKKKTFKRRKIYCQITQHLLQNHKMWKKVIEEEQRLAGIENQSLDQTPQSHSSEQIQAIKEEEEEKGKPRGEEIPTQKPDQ

[5] = target: cGMP-specific 3',5'-cyclic phosphodiesterase (Homo sapiens, UniProt O76074); assay: Inhibition of PDE5A (unknown origin)
Mus musculus [6] = assay: Antiinflammatory activity in ICR mouse ear edema model assessed as inhibition of TPA-induced edema at 1% W/V per ear administered topically 30 mins before TPA challenge; assay type: functional
Mus musculus [7] = assay: Antiinflammatory activity in ICR mouse ear edema model assessed as inhibition of TPA-induced edema at 0.3 % W/V per ear administered topically 30 mins before TPA challenge; assay type: functional
Lymphocyte = assay: Inhibition of IL2 production in activated mouse lymphocytes after 3 hrs by ELISA; assay type: functional, cell-based

SMILES | IC50 [1] | solubility [3] | IC50 [4] | IC50 [5] | IC50 (Lymphocyte) | IC50 [2] | inhibition (INH) (Mus musculus [6]) | inhibition (INH) (Mus musculus [7])
CCNc1nc2ccsc2c(=O)n1CC | 2900 nM | 240 µg/mL (≈ 1070 µM) | – | – | – | – | – | –
CCCNc1nc2ccsc2c(=O)n1CC | 1400 nM | 69 µg/mL (≈ 291 µM) | – | – | – | – | – | –
CCn1c(CC(C)C)nc2ccsc2c1=O | 4700 nM | – | – | – | – | – | – | –
CCn1c(NC(C)(C)C)nc2ccsc2c1=O | 1500 nM | 3.7 µg/mL (≈ 14.7 µM) | – | – | – | – | – | –
CCn1c(NC2CC2)nc2ccsc2c1=O | 2600 nM | 430 µg/mL (≈ 1830 µM) | – | – | – | – | – | –
CCn1c(NC2CCOCC2)nc2ccsc2c1=O | 430 nM | 37 µg/mL (≈ 132 µM) | – | – | – | 12000 nM | – | –
CCn1c(N[C@H]2CC[C@H](C(=O)O)CC2)nc2ccsc2c1=O | 1300 nM | 450 µg/mL (≈ 1400 µM) | – | – | – | – | – | –
CCn1c(NC(C)C)nc2c(-c3cccnc3)csc2c1=O | 4.4 nM | 5.8 µg/mL (≈ 18.4 µM) | – | – | – | 520 nM | – | –
CCn1c(NC(C)C)nc2c(-c3ccco3)csc2c1=O | 12 nM | 0.1 µg/mL (≈ 0.33 µM) | – | – | – | 550 nM | – | –
CCn1c(NC(C)C)nc2c(-c3sc(C)nc3C)csc2c1=O | 6.4 nM | 4.5 µg/mL (≈ 12.9 µM) | – | – | – | 200 nM | – | –
CCn1c(NC(C)C)nc2c(-c3ccnc(OC)c3)csc2c1=O | 4.6 nM | 2.4 µg/mL (≈ 6.97 µM) | – | – | – | 420 nM | – | –
CCn1c(NC(C)C)nc2c(-c3cncnc3)csc2c1=O | 7.6 nM | 18 µg/mL (≈ 57.1 µM) | – | – | – | 1100 nM | – | –
CCn1c(NC(C)C)nc2c(C3CCN(c4ccccn4)CC3)csc2c1=O | 6.8 nM | – | – | – | > 3000 nM | 440 nM | – | –
CCn1c(NC(C)C)nc2c(C3CCN(C(C)=O)CC3)csc2c1=O | 20 nM | 74 µg/mL (≈ 204 µM) | – | – | 2000 nM | 1500 nM | – | –
CCn1c(NC(C)C)nc2c(C3CCCN(C(C)=O)C3)csc2c1=O (stereo not given) | 5.1 nM | 230 µg/mL (≈ 634 µM) | – | – | 750 nM | 560 nM | – | –
CCn1c(NC(C)C)nc2c(C3CCN(C(=O)c4ccccn4)C3)csc2c1=O (stereo not given) | 2.7 nM | 38 µg/mL (≈ 92.3 µM) | 3300 nM | 3000 nM | 290 nM | 200 nM | 72% | 45%

Further lines, with some results ahead:

IC50 [1] | solubility [3] | IC50 [4] | IC50 [5] | IC50 (Lymphocyte) | SMILES | IC50 [2] | inhibition (INH) (Mus musculus [6]) | inhibition (INH) (Mus musculus [7])
3.3 nM | 150 µg/mL (≈ 352 µM) | 1600 nM | 2300 nM | 150 nM | CCn1c(NC(C)C)nc2c(C3CCN(C(=O)c4cccc(C)n4)C3)csc2c1=O (stereo not given) | 46 nM | 96% | 65%
– | 190 µg/mL (≈ 801 µM) | – | – | – | CCn1c(NC(C)C)nc2ccsc2c1=O | – | – | –
300 nM | 6.3 µg/mL (≈ 25.3 µM) | – | – | – | CCn1c(NC2CCC2)nc2ccsc2c1=O | 4800 nM | – | –
2300 nM | 74 µg/mL (≈ 252 µM) | – | – | – | CCn1c(N[C@H]2CC[C@H](O)CC2)nc2ccsc2c1=O | 24000 nM | – | –
2100 nM | 13 µg/mL (≈ 38.8 µM) | – | – | – | CCn1c(N[C@H]2CC[C@H](C(=O)OC)CC2)nc2ccsc2c1=O | – | – | –
190 nM | 1100 µg/mL (≈ 3430 µM) | – | – | – | CCn1c(NC(C)C)nc2c(C3CCNCC3)csc2c1=O | 14000 nM | – | –
170 nM | 350 µg/mL (≈ 965 µM) | – | – | > 3000 nM | CCn1c(NC(C)C)nc2c(C3CCN(C(C)C)CC3)csc2c1=O | 25000 nM | – | –
15 nM | 470 µg/mL (≈ 1350 µM) | – | – | – | CCn1c(NC(C)C)nc2c(C3CCN(C(C)=O)C3)csc2c1=O (stereo not given) | 1900 nM | – | –
8.4 nM | 130 µg/mL (≈ 345 µM) | – | – | > 1000 nM | CCn1c(NC(C)C)nc2c(C3CCN(C(=O)C(C)C)C3)csc2c1=O (stereo not given) | 1400 nM | – | –
8.1 nM | 15 µg/mL (≈ 38.4 µM) | – | – | 1800 nM | CCn1c(NC(C)C)nc2c(C3CCN(C(=O)CC(C)C)C3)csc2c1=O (stereo not given) | 2300 nM | – | –
1.5 nM | 21 µg/mL (≈ 51.2 µM) | – | – | 760 nM | CCn1c(NC(C)C)nc2c(C3CCN(C(=O)c4ccccc4)C3)csc2c1=O (stereo not given) | 380 nM | – | –
1.4 nM | 64 µg/mL (≈ 150 µM) | 1300 nM | 3100 nM | 270 nM | CCn1c(NC(C)C)nc2c(C3CCN(C(=O)c4ncccc4C)C3)csc2c1=O (stereo not given) | 140 nM | 77% | 62%
